Like-named read-outs stand apart in the source and are kept apart here.
Columns and labels:
[1] = Pharmacokinetics of methylone after single IV, PO or IP administration, plasma LC-MS/MS; type: in vivo, male Sprague Dawley rats; conditions: for MRT last: read-out: MRT0-last; for Cmax: rat plasma
Description: The pharmacokinetic properties of methylone after a single administration intravenously (IV), intraperitoneally (IP), or by oral gavage (PO) in male Sprague Dawley rats has been determined using a liquid chromatography tandem mass spectrometry (LC-MS/MS) method that has been established and validated for methylone in the rat. Rats (n=3 per group) received a single dose of methylone: 5 mg/kg IV, 15 mg/kg IP, or 15 mg/kg PO.
To investigate whether the prodrug extends the half-life or alters other basic pharmacokinetic properties of methylone (e.g., Cmax or Tmax), rats are treated with each prodrug IV, IP, or PO. For each compound, three groups of rats are treated as follows: For group 1, a single dose of methylone is administered to 3 male Sprague-Dawley rats by IV bolus at 5 mg/kg. For group 2, a single dose of methylone is administered to 3 male Sprague-Dawley rats by oral gavage (PO) at 15 mg/kg. For group 3, a single dose of methylone is administered to 3 male Sprague-Dawley rats by IP at 15 mg/kg. For all groups, blood samples are collected from each animal at 0.083, 0.25, 0.5, 1, 2, 4, 8, 12, and 24 hours post-dose for the determination of plasma concentrations. The plasma concentrations are quantified by liquid chromatography tandem mass spectrometry (LC-MS/MS). The bioanalytical assay has been established and validated, providing a lower limit of quantification (LLOQ) of 1 ng/mL and an upper limit of quantification (ULOQ) of 3000 ng/mL for methylone. The plasma concentration-time data are analyzed using Phoenix WinNonlin (version 8.3) to characterize the PK properties of the analyte. The non-compartmental analysis model and the linear/log trapezoidal method are applied to calculating the PK parameters.

open field test = conditions: 5, 10, 20 mg/kg, SC; Štefková et al. 2017; cited from earlier work
mouse model of PTSD = assay: Fear extinction in a mouse model of PTSD; type: in vivo; conditions: 30 mg/kg IP
Description: FIGS. 1A-1D: Methylone improves fear extinction recall in a mouse model of PTSD. (FIG. 1A) Schematic of experimental design. A single CS-US (tone-shock) pairing on day 1 was followed by 6 CS presentations in a novel context (context B). Methylone or saline vehicle was injected 30 min prior to extinction training on day 2. On day 3, the time spent freezing to the CS was quantified. […] (FIG. 1C) The time freezing before vs. during each of 6 cues on day 3 (to control for locomotor effects) are shown. There was a significant cue x drug interaction (F(5, 130)=2.409, p<0.05). […] N=12 for methylone group (30 mg/kg, IP, orange diamonds) and N=16 for saline control group (black squares). *p<0.05
Effective PTSD treatments facilitate the disassociation between a traumatic memory and the patient's fear response, making cues for the traumatic memory evoke less of a fear response. This is modeled in the mouse fear extinction paradigm which takes place over 3 days. On day 1 (fear conditioning), mice are trained to acquire a “traumatic memory,” namely associating the conditioned stimulus (CS, tone) to the unconditioned stimulus (US, foot shock). […] On day 3 (extinction recall), the mice are “asked” if that tone (CS) still elicits a fearful response, as measured by the time spent freezing when the tone is presented. […]

[2] = test system: rat forced swim test (FST); assay: Rat forced swim test (FST); type: in vivo
Description: All FST studies are performed and scored by an experimenter blind to treatment group and according to standard protocols. Briefly, rats are placed in a circular plexiglass container filled with water. Water temperature is maintained at 22-25° C. and changed for every animal. Day 1 (Training) consists of a 15 min acclimation trial, and Day 2 (Testing, 24 h later) consists of the 5 min test. A time sampling procedure is employed where animals are observed every 5 seconds for the duration of the test session (60 counts or 5 minutes) and scored for immobility (defined as the failure to struggle), swimming (defined as a circular movement around the tank), or climbing (defined as an upwards escape behavior). Data are expressed as the percent of the testing session (e.g., the number of immobility counts divided by 60). A p-value less than 0.05 indicates statistical significance after typical statistical analyses (e.g., unpaired t-test or ANOVA).
To determine that the prodrug and/or enantiomer has an antidepressant-like effect and to compare it to methylone, rats are treated with each compound 30 min prior to testing. Additional tests are run 24, 72, 168 hours post-dose or longer.
Racemic methylone (10 mg/kg, IP) has a maximal antidepressant-like effect in the rat forced swim test (FST), reducing immobility by nearly 100% compared to vehicle treated controls. To determine whether one enantiomer of methylone could mimic the robust antidepressant-like effect of racemic methylone, rats were treated with a single dose of racemic methylone, (R)-methylone, (S)-methylone (all 10 mg/kg, IP) or vehicle 30 min before testing in the FST. […] Therefore, all of the activity of methylone appears to be driven by the activity of one enantiomer ((S)-methylone).

PTSD = conditions: clinical case series of 21 individuals; cited from earlier work
[3] = rat; Elmore et al. 2017; cited from earlier work
[4] = self-administration, healthy volunteers; cited from earlier work
[5] = male, Sprague Dawley, rat, plasma, IP 15 mg/kg
[6] = male, Sprague Dawley, rat, plasma, IV 5 mg/kg
[7] = male, Sprague Dawley, rat, plasma, PO 15 mg/kg

SMILES: CNC(C)C(=O)c1ccc2c(c1)OCO2 (stereo not shown) [Methylone, 3,4-methylenedioxy-N-methylacthinone]
- Tmax ([1]; IP 15 mg/kg): 0.250 ± 0.000 h
- AUC(0-t) [1, 5]: 4.3 ± 1.18 µg·h/mL
- half-life [1, 5]: 0.8 ± 0.169 h
- MRT last [1, 5]: 1.07 ± 0.211 h
- AUC(0-t) [1, 6]: 1.2 ± 0.0882 µg·h/mL
- C0 [1, 6]: 3.02 ± 0.666 µg/mL
- clearance [1, 6]: 4.1 ± 0.324 L/h/kg
- half-life [1, 6]: 0.362 ± 0.024 h
- MRT last [1, 6]: 0.439 ± 0.026 h
- Vd ([1]; male, Sprague Dawley, rat, plasma, IV 5 mg/kg, read-out: Vdss): 1.98 ± 0.23 L/kg
- AUC(0-t) [1, 7]: 2.77 ± 0.657 µg·h/mL
- half-life [1, 7]: 3.23 ± 1.99 h
- MRT last [1, 7]: 2.99 ± 0.467 h
- Tmax ([1]; male, Sprague Dawley, rat, plasma, PO 15 mg/kg, read-out: Tmax): 1.33 ± 0.577 h
- Cmax ([1]; male, Sprague Dawley, IP 15 mg/kg): 4.23 ± 0.514 µg/mL
- Cmax ([1]; male, Sprague Dawley, PO 15 mg/kg): 0.678 ± 0.243 µg/mL
- Thigmotaxis (time spent hugging the perimeter of the open field) (open field test): reduce thigmotaxis
- Enhancement of fear extinction recall compared to saline controls (mouse model of PTSD; 30 min prior to extinction training): ~60%
- Freezing time during the first cue on day 3 (extinction recall) compared to saline (mouse model of PTSD; p<0.05): significantly reduced
- Reduction of immobility compared to vehicle-treated controls ([2]; single dose 5 mg/kg): approximately 50%
- Reduction of immobility compared to vehicle-treated controls ([2]; single dose 15 mg/kg): ~100%
- Patients with improved PTSD symptoms (PTSD): 81%
- t1/2 [3]: 1 h
- Heart rate [4]: increase in heart rate
- Systolic and diastolic blood pressure [4]: significant increase
